Among the test systems are OVCAR-8 ovarian; MDA-MB-435; MDA-MB-231 breast; SK-MEL-2 melanoma; T-47D breast; MCF7 breast; HS 578T breast; U251 CNS; 786-0 renal; OVCAR-3 ovarian; SF-295 CNS; TK-10 renal; OVCAR-4 ovarian; NCI-H522 lung; M14 melanoma; SF-268 CNS; NCI-H460 lung; SW-620 colon.
Holding throughout (test): DTP human tumour cell line panel, 48 h

Values joined by “and” are separate entries in the source; they are usually repeats but may differ in a detail not shown here. Equal values may be shown once.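 Compound exposure: 48 hours, 5 concentrations, 96-well plates. GI50 is the concentration that inhibits growth by half. TGI: concentration producing complete growth inhibition.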

Broadly, the TGI is the concentration at which net growth stops. Read a high TGI as lower sensitivity of the cells. For the molecule `CCOC(=O)c1ccc(N=c2oc3ccc(OC)cc3cc2-c2nc3ccccc3[nH]2)cc1`, the TGI is 43.2 µM in the test on OVCAR-8 ovarian; > 100 µM with MDA-MB-435; > 100 µM with MDA-MB-231 breast; > 100 µM in the test with SK-MEL-2 melanoma; > 100 µM with T-47D breast; > 100 µM in the test with MCF7 breast. Moreover, the concentration for total growth inhibition (TGI) with HS 578T breast, in the test with U251 CNS, with 786-0 renal, in the test on OVCAR-3 ovarian, with SF-295 CNS and in the test with TK-10 renal was > 100 µM in each case. The TGI with OVCAR-4 ovarian, in the test on NCI-H522 lung, with M14 melanoma, with SF-268 CNS, in the test with NCI-H460 lung and in the test on SW-620 colon was > 100 µM throughout.

The term GI50 denotes the concentration giving 50% growth inhibition. For the molecule `CN(C)CCCN1c2ccccc2CCc2cc([N+](=O)[O-])ccc21`, the TGI is 71.8 µM and 30 µM in the test on OVCAR-8 ovarian; 48.4 µM and 31.1 µM with MDA-MB-435; 52.7 µM and 30.2 µM in the test on MDA-MB-231 breast; 39.4 µM and 38.8 µM with SK-MEL-2 melanoma; 43.9 µM and 37.7 µM in the test with T-47D breast; 79 µM and 31.8 µM in the test on MCF7 breast. Further, the TGI in the test on HS 578T breast was 71.9 µM and 34.3 µM; in the test with U251 CNS it was 64.2 µM and 32.9 µM; with 786-0 renal it was 66 µM and 28.9 µM; in the test on OVCAR-3 ovarian it was 48.4 µM and 34.8 µM; with SF-295 CNS, 45.1 µM and 28.4 µM; in the test on TK-10 renal, 69 µM and 27.8 µM. Moreover, the TGI in the test on OVCAR-4 ovarian is 69.5 µM and 40.5 µM; in the test on NCI-H522 lung, 60.6 µM and 31 µM; with M14 melanoma it was 38.1 µM and 31.1 µM; in the test with SF-268 CNS, 52.5 µM and 28.8 µM; in the test on NCI-H460 lung it was 41.7 µM and 29.8 µM; in the test on SW-620 colon, > 100 µM and 32.6 µM. The GI50 with SW-620 colon is 37.2 µM and 16.3 µM.

Take `CCO/C=C(\C(=O)OC)S(=O)(=O)c1ccc(C)cc1`: the TGI in the test with OVCAR-8 ovarian, with MDA-MB-435, in the test with MDA-MB-231 breast, in the test with SK-MEL-2 melanoma, in the test on T-47D breast and in the test on MCF7 breast was > 100 µM each time. For the same molecule, the TGI in the test on HS 578T breast, in the test on U251 CNS, with 786-0 renal, in the test with OVCAR-3 ovarian, with SF-295 CNS and in the test on TK-10 renal was > 100 µM throughout. The TGI in the test on OVCAR-4 ovarian, in the test on NCI-H522 lung, with M14 melanoma, in the test on SF-268 CNS, in the test on NCI-H460 lung and in the test with SW-620 colon was > 100 µM throughout.

Turning to `CCOC(=O)c1cc(Br)c(-c2onc(C)c2Br)n1C`, the TGI with OVCAR-8 ovarian is > 100 µM; with MDA-MB-435 it was > 100 µM; in the test with MDA-MB-231 breast, > 100 µM; in the test on SK-MEL-2 melanoma, > 100 µM; with T-47D breast, 57.7 µM; with MCF7 breast, 77.5 µM. Besides, the total growth inhibition concentration (TGI) in the test with HS 578T breast is > 100 µM; in the test with U251 CNS, > 100 µM; with 786-0 renal, 86.1 µM; in the test on OVCAR-3 ovarian it was > 100 µM; in the test on SF-295 CNS, 76.2 µM; in the test with TK-10 renal it was > 100 µM. In addition, the TGI with OVCAR-4 ovarian is > 100 µM; with NCI-H522 lung it was 72.7 µM; in the test with M14 melanoma, > 100 µM; with SF-268 CNS, > 100 µM; with NCI-H460 lung, > 100 µM; in the test with SW-620 colon, > 100 µM.

For the molecule `CC(C)NC(=O)OCc1c(COC(=O)NC(C)C)c(-c2ccc[n+](COC(=O)C(C)(C)C)c2)n2c1CCC2`, the TGI in the test with OVCAR-8 ovarian, in the test with MDA-MB-435, in the test on MDA-MB-231 breast, in the test on SK-MEL-2 melanoma, in the test on T-47D breast and in the test on MCF7 breast was > 100 µM throughout. For the same molecule, the total growth inhibition concentration (TGI) with HS 578T breast, in the test on U251 CNS, with 786-0 renal, with OVCAR-3 ovarian, with SF-295 CNS and with TK-10 renal was > 100 µM in each case. Moreover, the TGI is > 100 µM in the test with OVCAR-4 ovarian; > 81.5 µM in the test with NCI-H522 lung; > 100 µM in the test on M14 melanoma; > 100 µM in the test on SF-268 CNS; > 100 µM in the test with NCI-H460 lung; > 100 µM with SW-620 colon.

As to `C#CCCOC(=O)c1ccccc1OC(C)=O`, the TGI with OVCAR-8 ovarian, in the test with MDA-MB-435, in the test with MDA-MB-231 breast, with SK-MEL-2 melanoma, with T-47D breast and in the test with MCF7 breast was > 100 µM in each case. Besides, the TGI in the test with HS 578T breast, in the test with U251 CNS, in the test with 786-0 renal, with OVCAR-3 ovarian, with SF-295 CNS and in the test on TK-10 renal was > 100 µM each time. Moreover, the TGI in the test with OVCAR-4 ovarian, with NCI-H522 lung, in the test on M14 melanoma, in the test on SF-268 CNS, with NCI-H460 lung and in the test with SW-620 colon was > 100 µM each time.

On to `CCc1ccccc1NC(=O)C(=O)CC(=O)c1sc(Nc2ccccc2Cl)nc1C`, for which the total growth inhibition concentration (TGI) in the test on OVCAR-8 ovarian is > 100 µM; in the test on MDA-MB-435 it was 66.4 µM; with MDA-MB-231 breast, > 100 µM; in the test on SK-MEL-2 melanoma, 56.1 µM; in the test with T-47D breast, > 100 µM; in the test with MCF7 breast, 45.9 µM. In addition, the TGI is > 100 µM in the test with HS 578T breast; > 100 µM with U251 CNS; 90.9 µM in the test on 786-0 renal; 61 µM with OVCAR-3 ovarian; 99.2 µM in the test with SF-295 CNS; > 100 µM in the test on TK-10 renal. The TGI was > 100 µM in the test on OVCAR-4 ovarian; 47.5 µM in the test on NCI-H522 lung; 63.7 µM in the test with M14 melanoma; > 100 µM in the test on SF-268 CNS; 46.1 µM with NCI-H460 lung; 69.9 µM in the test on SW-620 colon.

Values taken from PubChem BioAssay (NCI).
